8 compounds from PubChem BioAssay (NCI) can be followed below.

Where “and” joins values, the source holds several entries; their conditions need not be identical. Equal entries are not always repeated.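 Following 48 hours of exposure in 96-well plates, responses at five concentrations were used to interpolate endpoints linearly. Here, GI50 denotes the concentration required for 50% inhibition of growth. TGI is the concentration that stops growth completely.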 Some results are limits rather than exact numbers.

Assay in all cases: NCI anticancer screen, dose series, 48 h
For experiment [1], the system named is CAKI-1 renal.
In experiment [2] the test system is HCT-116 colon.
Experiment [3] relates to OVCAR-8 ovarian.
For experiment [4], the system named is SK-OV-3 ovarian.
The test system of experiment [5] is HCC-2998 colon.
Experiment [6] concerns IGROV1 ovarian.
In experiment [7] the test system is NCI/ADR-RES ovarian.
Experiment [8] has as its system NCI-H226 lung.
In experiment [9] the test system is MDA-MB-231 breast.
Experiment [10] relates to U251 CNS.

As to `CCc1ccccc1N1CCN(C(=O)c2cc(OC)c(OC)c(OC)c2)CC1`, the TGI in experiment [1] was 43 µM; in experiment [2], 16.5 µM; in experiment [3], 13.6 µM; in experiment [4], 4.55 µM; in experiment [5], 2.09 µM; in experiment [6], over 51.4 µM. The TGI in experiment [7] was 1.63 µM; in [8] it was 5.6 µM; in experiment [9], over 100 µM; in experiment [10], 4.14 µM.
As to `O=C1/C(=C/c2ccccc2F)CNC/C1=C\c1ccccc1F`, the GI50 in experiment [1] was 0.676 µM and 0.611 µM; in experiment [2], 0.224 µM and 0.177 µM; in [3] it was 0.338 µM and 0.369 µM; in experiment [4], 1.68 µM and 1.58 µM; in [5], 1.13 µM and 0.359 µM; in experiment [6], 0.809 µM and 1.2 µM. Further, the GI50 in experiment [7] is 0.665 µM and 0.699 µM; in experiment [8], 3.15 µM and 1.46 µM; in [9], 1.18 µM and 0.653 µM; in [10] it was 0.165 µM. Further, the TGI in experiment [1] was 3.71 µM and 2.16 µM; in [2] it was 0.549 µM and 0.341 µM; in experiment [3], 4.27 µM and 2.91 µM; in experiment [4], 4.01 µM and 3.12 µM; in [5] it was 2.38 µM and 1.16 µM; in experiment [6], 2.49 µM and 3.19 µM. Also, the TGI in experiment [7] is 6.57 µM and 12.8 µM; in experiment [8], 10.7 µM and 3.91 µM; in [9], 3.17 µM and 2.36 µM; in experiment [10], 0.362 µM and 0.372 µM.
As for `O=C1c2ccc3c4c5ccc(c24)C(=O)N1CCCOCCCCOCCCNCc1ccc(cc1)CNCCCOCCCCOCCCN(C3=O)C5=O`, the GI50 was 0.834 µM in experiment [1]; 0.888 µM in [2]; 1.06 µM in experiment [3]; 1.18 µM in experiment [4]; 0.928 µM in experiment [5]; 0.791 µM in [6]. The GI50 in experiment [7] was 6.12 µM; in [8], 1.77 µM; in experiment [9], 1.07 µM; in experiment [10] it was 0.832 µM. Also, the TGI in [1] was found to be 1.71 µM; in experiment [2], 1.9 µM; in experiment [3], 2.74 µM; in experiment [4], 2.66 µM; in experiment [5], 1.68 µM; in experiment [6], 1.6 µM. The TGI was found to be 17.5 µM in [7], 6.58 µM in experiment [8], 2.98 µM in [9] and 1.64 µM in [10].
`CN(c1ccc(NC(=O)Nc2ccc(OC(F)(F)F)cc2)cc1)c1ccnc(Nc2cccc(S(N)(=O)=O)c2)n1`: the GI50 is 6.45 µM in experiment [1]; 1.73 µM in [2]; 3.07 µM in [3]; 4.65 µM in [4]; 5.11 µM in [5]; 1.73 µM in experiment [6]. Further, the GI50 was 12.6 µM in [7], 3.28 µM in experiment [8], 4.92 µM in experiment [9] and 3.07 µM in experiment [10]. Also, the TGI was found to be 20.8 µM in experiment [1]; 5.7 µM in experiment [2]; 7.17 µM in experiment [3]; 8.96 µM in [4]; 9.27 µM in experiment [5]; 7.45 µM in experiment [6]. In addition, the TGI in [7] was 25 µM; in experiment [8], 9.51 µM; in experiment [9], 15.1 µM; in experiment [10], 6.64 µM.
Turning to `Cn1c(=O)c(Oc2ccc(F)cc2F)cc2cnc(NC(CO)CO)nc21`, the GI50 in experiment [1], in experiment [2], in experiment [3], in [4], in experiment [5] and in experiment [6] was over 25 µM throughout. Besides, the GI50 in [7], in experiment [8], in experiment [9] and in experiment [10] was over 25 µM throughout. Moreover, the TGI in experiment [1], in experiment [2], in [3], in experiment [4], in [5] and in experiment [6] was over 25 µM each time. The TGI in experiment [7], in experiment [8], in [9] and in [10] was over 25 µM each time.
Regarding `O=C1C=C[C@@]23C[C@@H](Nc4c(O)c5c6c(c42)=NCCC=6C=N5)SC3=C1`, the TGI in experiment [1] was found to be 32.1 µM; in experiment [2], 4.03 µM; in experiment [3] it was 3.66 µM; in [4] it was 32.8 µM; in experiment [5], 13.6 µM; in experiment [6], 4.35 µM. Besides, the TGI was found to be 10.1 µM in [7], 28.7 µM in experiment [8], 3.35 µM in experiment [9] and 7.92 µM in experiment [10]. Besides, the GI50 in [3] is 1.87 µM; in experiment [5], 4.39 µM; in [6], 2.01 µM; in experiment [7], 2.88 µM; in [9] it was 1.62 µM; in experiment [10], 2.72 µM.
As for `C/C([O-])=C1\Cc2ccccc2C1=O.C/C([O-])=C1\Cc2ccccc2C1=O.CC[O-].CC[O-].[Ti+4]`, the GI50 in [1] was 36.5 µM; in experiment [2], 17.3 µM; in experiment [3], 12.9 µM; in experiment [4], 20.3 µM; in experiment [5], 17.3 µM; in experiment [6], 8.46 µM. Moreover, the GI50 was 23.4 µM in experiment [7], 7.47 µM in experiment [8], 12.9 µM in [9] and 9.36 µM in experiment [10]. For the same compound, the TGI in experiment [1] was over 100 µM; in [2] it was over 61.3 µM; in experiment [3], 50.4 µM; in [4], 81.7 µM; in experiment [5] it was 58.8 µM; in experiment [6] it was 39.5 µM. Moreover, the TGI was over 100 µM in [7], 35.7 µM in experiment [8], 70.9 µM in [9] and 26.2 µM in experiment [10].
As to `CC(C)C[C@H](NC(=O)[C@H]1O[C@@H]1C(=O)O)C(=O)NCCc1ccc(O)cc1`, the GI50 in experiment [1], in experiment [2], in experiment [3], in [4], in experiment [5] and in experiment [6] was over 100 µM throughout. Further, the GI50 in [7], in [8], in [9] and in [10] was over 100 µM throughout. The TGI in experiment [1], in experiment [2], in [3], in experiment [4], in [5] and in experiment [6] was over 100 µM in each case. Besides, the TGI in experiment [7], in [8], in [9] and in experiment [10] was over 100 µM each time.
